Laboratory results taken from patent US9901592B2 (priority 2008, dated 2018).
≈ marks a conversion by molar mass, not a printed value.

What was measured:
[1] = system: S. aureus; format: cell-based
[2] = system: ribosome erm-dimethylated at A2058; experiment: binding to the ribosome
[3] = system: S. pneumoniae; format: cell-based

For `CC[C@H]1OC(=O)[C@H](C)[C@@H](OC2CC(C)(OC)C(O)C(C)O2)[C@H](C)[C@@H](OC2OC(C)CC(N(C)C)C2O)[C@@](C)(OC)C[C@@H](C)C(=O)[C@H](C)[C@H]2N(CCCCn3cc(-c4cccc(N)c4)nn3)C(=O)O[C@]12C` (stereo partly drawn) [Entry 20c], the MIC [1] was 8 µg/mL (≈ 8.1 µM), the “binding to the ribosome” value [2] was “considerable binding” and the MIC [3] was “≦0.0625 μg/mL”.
